Here are results for two compounds from patent publication US20210228685A1, “IMPROVED WEIGHT LOSS THERAPY” (BIOREG LLC, priority 2018, published 2021).

For experiment [1], the system named is differentiated SVF adipocytes. Kind of experiment: adipocyte lipolysis assay (glycerol released into the medium). Format: cell-based. The note with it: 12-well format, 20 h at 37° C., without Atglistatin; 1 ng/ml rLIF or 30 nM isoproterenol. On the procedure: Conditioned medium from the C26c20 and MC-38 cells was subsequently placed on differentiated adipocytes, and the amount of glycerol released into the medium was quantified. Glycerol release into the medium is a marker for triglyceride lipolysis in adipocytes (27).
SVF preadipocytes were differentiated into adipocytes as follows: On day −3, SVF preadipocytes were set up in 1 ml medium B at a density of 1×10^6 cells/well of 12-well plates or 3.3×10^5 cells/well of 48-well plates. […] After 2 minutes, the amount of absorbance per well was measured using a Tecan microplate reader (absorbance 540 nm). The amount of glycerol concentration released into the medium per condition over background was calculated using the measured absorbance relative to the absorbance of the standardized curve.
To identify the proteins that mediated lipolysis in C26c20 conditioned medium, we carried out a biochemical purification using the lipolysis assay described above using SVF preadipocytes differentiated into adipocytes set up in 12-well plates or 48-well plates. […] After 2 minutes, the amount of absorbance per well was measured using a Tecan microplate reader (absorbance 540 nm). The amount of glycerol concentration released into the medium per condition over background was calculated using the measured absorbance relative to the absorbance of the standardized curve. […]

Another experiment addresses T1, ATGL (Mus musculus, UniProt Q8BJ56).
T1 construct: endogenous in cells; host or cells: differentiated SVF adipocytes
T1 sequence (Q8BJ56 1-486): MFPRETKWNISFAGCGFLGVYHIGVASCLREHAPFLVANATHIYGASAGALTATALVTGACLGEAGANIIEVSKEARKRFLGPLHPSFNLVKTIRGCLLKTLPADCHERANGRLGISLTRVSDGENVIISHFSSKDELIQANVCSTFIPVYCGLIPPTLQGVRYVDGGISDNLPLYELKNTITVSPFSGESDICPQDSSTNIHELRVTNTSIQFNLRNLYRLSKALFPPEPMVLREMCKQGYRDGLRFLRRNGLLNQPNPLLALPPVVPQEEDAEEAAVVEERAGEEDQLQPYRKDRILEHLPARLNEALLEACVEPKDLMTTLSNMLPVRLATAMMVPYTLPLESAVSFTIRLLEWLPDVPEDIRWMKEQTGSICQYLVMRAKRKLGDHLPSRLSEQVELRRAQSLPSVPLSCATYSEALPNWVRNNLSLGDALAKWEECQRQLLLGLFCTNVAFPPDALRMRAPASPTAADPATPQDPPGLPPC
Put plainly: Atglistatin inhibition of rLIF- or isoproterenol-induced adipocyte lipolysis. Format: cell-based. The following applies: 1 ng/ml rLIF, increasing concentrations of Atglistatin. The procedure: Using the tissue culture adipocyte lipolysis assay, we tested both purified recombinant versions of LIF for their ability to stimulate lipolysis. FIG. 1B-D show adipocyte lipolysis and signaling in wild-type and mutant rLIF-treated adipocytes. Differentiated adipocytes in a 12-well format were treated in a final volume of 1.5 ml of medium supplemented with either the indicated concentration of rLIF or rLIF K159A (FIG. 1B-C); or 30 nM Isoprotererenol or 1 ng/ml rLIF in the absence or presence of the indicated concentration of Atglistatin (FIG. 1D). After incubation for 20 h at 37° C., medium was collected and glycerol concentration was measured using the adipocyte lipolysis assay (FIGS. 1B and D) or adipocyte cells were harvested and subjected to IB analysis (FIG. 1C) ([…]) with the indicated antibody. Each data point (FIG. 1B) represents the mean±SEM of the relative change in medium glycerol concentration compared to conditions containing rLIF without Atglistatin (red, 26 μM) or isoproterenol without Atglistatin (black, 83 μM). As shown in (FIG. 1B), in vitro adipocyte lipolysis activity with WT rLIF was increased over background by ˜5-fold compared with mutant rLIF K159A.
In adipocytes, triglycerides are sequentially hydrolyzed by ATGL, HSL, and monoacylglycerol lipase (MGL). […]

With `CC(C)NCC(O)c1ccc(O)c(O)c1` (centres unmarked) [isoproterenol], the medium glycerol concentration in experiment [1] worked out at 83 µM.
Regarding `CN(C)C(=O)Nc1cccc(-c2ccc(N(C)C)cc2)c1` [Atglistatin], at ATGL, the “inhibition of rLIF-induced lipolysis” value is listed as “inhibited”.
